Experimental findings from patent publication US11236047B2 (ASTEX THERAPEUTICS LIMITED, priority 2017, dated 2022) are described below.

Where two headings read alike, the source gives them in different places.

Test [1] has as its system SJSA-1 cells. Briefly: Protocol B: SJSA-1 CellTiter-Glo luminescent cell viability assay.
Test [2] relates to SN40R2 cells. Briefly: Protocol B: SN40R2 CellTiter-Glo luminescent cell viability assay. Particulars: for inhibition at 10 µM: read-out: SN40R2 % inhibition at 10, Protocol B, SN40R2, at 10 μM. On the technique in general: ATP-based viability assays read luminescence as a measure of living cells.
Method: Protocol B: SJSA-1 and SN40R2 Assays
The CellTiter-Glo® Luminescent Cell Viability Assay is a homogeneous method to determine the number of viable cells in culture based on quantitation of the ATP present, which signals the presence of metabolically active cells. […] 100 μl of CTG reagent (Promega #G7573) was added to all wells and luminescence was measured on the topcount. The EC50 values were determined from a sigmoidal 4 parameter curve fit using XLfit in conjunction with Activity Base (IDBS; Guildford, Surrey, UK).
Test [3] deals with MDM2-p53 interaction (Homo sapiens (Human), UniProt Q00987). As to conditions: for inhibition at 0.1 µM: read-out: MDM2 % inhibition @0.10; for inhibition at 0.03 µM: read-out: MDM2 % inhibition @0.030; for inhibition at 0.001 µM: read-out: MDM2 % inhibition @0.0010.
Sequence of MDM2-p53 interaction (Q00987 whole entry): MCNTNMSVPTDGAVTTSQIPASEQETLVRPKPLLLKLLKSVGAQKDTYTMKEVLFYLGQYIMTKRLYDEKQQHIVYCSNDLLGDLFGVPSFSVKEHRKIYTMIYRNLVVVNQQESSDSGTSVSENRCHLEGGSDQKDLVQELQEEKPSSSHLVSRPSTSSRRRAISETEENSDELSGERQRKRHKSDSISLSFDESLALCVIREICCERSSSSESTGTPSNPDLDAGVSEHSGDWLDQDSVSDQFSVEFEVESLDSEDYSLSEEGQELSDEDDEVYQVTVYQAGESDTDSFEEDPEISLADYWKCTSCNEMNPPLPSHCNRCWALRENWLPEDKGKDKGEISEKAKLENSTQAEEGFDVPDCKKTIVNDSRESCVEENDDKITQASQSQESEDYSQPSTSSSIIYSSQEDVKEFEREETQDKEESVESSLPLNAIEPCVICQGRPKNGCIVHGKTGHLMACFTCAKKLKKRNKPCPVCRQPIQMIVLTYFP
The test system of test [4] is SN40R2 cells (p53 mutated, MDM2 amplified osteosarcoma). The experiment in a line: Protocol A: SN40R2 growth inhibition (sulphorhodamine B).
Method: Protocol A: SJSA-1 and SN40R2 Assays
The MDM2 amplified cell lines tested were an isogenic matched pair of p53 wild-type and mutated osteosarcoma (SJSA-1 and SN40R2, respectively). […] Following incubation with the SRB dye at room temperature for 30 min, the plates were washed with 1% acetic acid and left to dry. […] The GI50 was calculated by non-linear regression analysis of the data using Prism v4.0 statistical software.
[5] abbreviates: read-out: SJSA1 IC50, Protocol B, SJSA-1.

Broadly, the IC50 is the point on the concentration scale where inhibition reaches its midpoint. Usually inhibition stands for the relative decrease from the control value, in per cent.

On to `CCC(O)(c1cc(F)c2c(c1)C(=O)N(Cc1ccc(C#N)cn1)[C@@]2(O[C@H]1CCOC1)c1ccc(Cl)cc1)c1ccn(C)n1` (single isomer, unassigned) [Example 335], for which, in test [1] (setting [5]), the IC50 was 2.8 µM. For the same compound, the inhibition at 10 µM in test [2] was determined as 7%. In addition, in test [3], the inhibition at 0.1 µM amounted to 51%.
Take `CCC(O)(c1cc(F)c2c(c1)C(=O)N(Cc1ncc(Cl)cn1)[C@@]2(O[C@H]1CCOC1)c1ccc(Cl)cc1)c1cn(C)cn1` (single isomer, unassigned) [Example 474]: in test [1] (setting [5]), the IC50 is 1.3 µM. Further, in test [2], the inhibition at 10 µM worked out at 12%. The inhibition at 0.03 µM in test [3] was 38%.
For `CCC(O)(c1cc(F)c2c(c1)C(=O)N(Cc1ncc(Cl)cn1)[C@@]2(OCC1(CO)CC1)c1ccc(Cl)cc1)c1cn(C)cn1` (single isomer, unassigned) [Example 476], in that order: 0.6 µM, 4% and 51%.
`CCC(O)(CN1CCNCC1)c1cc(F)c2c(c1)C(=O)N(Cc1ncc(Cl)cn1)[C@@]2(OCC1(C#N)CC1)c1ccc(Cl)cc1` (single isomer, unassigned) [Example 536]: the IC50 in test [1] (setting [5]) was determined as 0.13 µM. In test [2], the inhibition at 10 µM amounted to 46%. Also, the inhibition at 0.001 µM in test [3] came to 64%.
For `CCC(O)(CN1CCNCC1)c1cc(F)c2c(c1)C(=O)N(Cc1ncc(Cl)cn1)[C@@]2(OCC1(F)COC1)c1ccc(Cl)cc1` (single isomer, unassigned) [Example 538], the IC50 in test [1] (setting [5]) was 2.2 µM. Besides, the inhibition at 10 µM in test [2] stood at 43%. Besides, the inhibition at 0.03 µM in test [3] came out at 44%.
For `CCC(O)(c1cc(F)c2c(c1)C(=O)N(Cc1ncc(Cl)cn1)[C@@]2(O[C@H]1CCOC1)c1ccc(Cl)cc1)C1(F)CCNCC1` (single isomer, unassigned) [Example 540], in that order: 1.8 µM, 62% and 33%.
Consider `CCC(O)(c1cc(F)c2c(c1)C(=O)N(Cc1ncc(C#N)cn1)[C@@]2(OCC1(C#N)CC1)c1ccc(Cl)cc1)C1(F)CCN(C)CC1` (single isomer, unassigned) [Example 574], for which, in test [2], the inhibition at 10 µM worked out at 27%. Also, in test [3], the inhibition at 0.001 µM was 45%.
For `CCC(O)(c1cc(F)c2c(c1)C(=O)N(Cc1ncc(C#N)cn1)[C@@]2(OC)c1ccc(Cl)cc1)C1(F)CCN(C)CC1` (single isomer, unassigned) [Example 575], in that order: 14% and 38%.
As for `CC(C)(O)c1cc(F)c2c(c1)C(=O)N(Cc1ccc(Cl)cc1)[C@@]2(OCC1(CO)CC1)c1ccc(Cl)cc1` [Example 2, (3R)-3-(4-chlorophenyl)-2-[(4-chlorophenyl)methyl]-4-fluoro-3-{[1-(hydroxymethyl)cyclopropyl]methoxy}-6-(2-hydroxypropan-2-yl)-2,3-dihydro-1H-isoindol-1-one], the half-inhibitory concentration (IC50) in test [4] (72 h, read-out: SN40R2 IC50 (μM) (Protocol A)) turned out to be 17 µM.
Take `CCC(O)(c1cc(F)c2c(c1)C(=O)N(Cc1ccc(C#N)cn1)[C@@]2(O[C@H]1CCOC1)c1ccc(Cl)cc1)C1(F)CCOCC1` (stereo partly drawn) [Example 446, 6-{[(1R)-1-(4-chlorophenyl)-7-fluoro-5-[1-(4-fluorooxan-4-yl)-1-hydroxypropyl]-3-oxo-1-[(3S)-oxolan-3-yloxy]-2,3-dihydro-1H-isoindol-2-yl]methyl}pyridine-3-carbonitrile]: the IC50 in test [1] (setting [5]) was 0.023 µM; in test [4] (read-out: SN40R2 IC50 (μM)), 29 µM.
For the compound `CC[C@@](O)(c1cc(F)c2c(c1)C(=O)N(Cc1ncc(C#N)cn1)[C@@]2(O[C@H]1CCOC1)c1ccc(Cl)cc1)C1CCC(O)CC1` (stereo partly drawn) [Example 503, 2-{[(1R)-1-(4-chlorophenyl)-7-fluoro-5-{1-hydroxy-1-[trans-4-hydroxycyclohexyl]propyl}-3-oxo-1-[(3S)-oxolan-3-yloxy]-2,3-dihydro-1H-isoindol-2-yl]methyl}pyrimidine-5-carbonitrile], in test [1] (Homo sapiens, SJSA-1, read-out: SJSA1 IC50 (μM), Protocol B, SJSA-1), the IC50 was 0.011 µM. Also, the inhibition at 10 µM in test [2] came to 13%. Further, the inhibition at 0.001 µM in test [3] was found to be 87%.
Take `CCC(O)(c1cc(F)c2c(c1)C(=O)N(Cc1ncc(C#N)cn1)[C@@]2(OC)c1ccc(Cl)cc1)[C@H]1CC[C@H](O)CC1` (stereo partly drawn) [Example 504, 2-{[(1R)-1-(4-chlorophenyl)-7-fluoro-5-{1-hydroxy-1-[trans-4-hydroxycyclohexyl]propyl}-1-methoxy-3-oxo-2,3-dihydro-1H-isoindol-2-yl]methyl}pyrimidine-5-carbonitrile]: the inhibition at 10 µM in test [2] was 0%. Moreover, the inhibition at 0.001 µM in test [3] came to 71%.
For `CC[C@@](O)(c1cc(F)c2c(c1)C(=O)N(Cc1ncc(C#N)cn1)[C@@]2(O[C@H]1C[C@@H](O)C1)c1ccc(Cl)cc1)C1(F)CCOCC1` [Example 505, 2-{[(1R)-1-(4-chlorophenyl)-7-fluoro-5-[(1R)-1-(4-fluorooxan-4-yl)-1-hydroxypropyl]-3-oxo-1-[cis-3-hydroxycyclobutoxy]-2,3-dihydro-1H-isoindol-2-yl]methyl}pyrimidine-5-carbonitrile], in that order: 5% and 60%.
Take `CC[C@](O)(c1cc(F)c2c(c1)C(=O)N(Cc1ncc(C#N)cn1)[C@@]2(O[C@H]1C[C@@H](O)C1)c1ccc(Cl)cc1)C1(F)CCOCC1` [Example 506, 2-{[(1R)-1-(4-chlorophenyl)-7-fluoro-5-[(1S)-1-(4-fluorooxan-4-yl)-1-hydroxypropyl]-3-oxo-1-[cis-3-hydroxycyclobutoxy]-2,3-dihydro-1H-isoindol-2-yl]methyl}pyrimidine-5-carbonitrile]: in test [2], the inhibition at 10 µM amounted to 2%. In addition, the inhibition at 0.03 µM in test [3] was 36%.
Take `CC[C@@](O)(c1cc(F)c2c(c1)C(=O)N(Cc1ncc(C#N)cn1)[C@@]2(O[C@H]1CCOC1)c1ccc(Cl)cc1)C1(F)CCOCC1` [Example 507, 2-{[(1R)-1-(4-chlorophenyl)-7-fluoro-5-[(1R)-1-(4-fluorooxan-4-yl)-1-hydroxypropyl]-3-oxo-1-[(3S)-oxolan-3-yloxy]-2,3-dihydro-1H-isoindol-2-yl]methyl}pyrimidine-5-carbonitrile]: the inhibition at 3 µM in test [2] (read-out: SN40R2 % inhibition at 3, Protocol B, SN40R2, at 3 μM) amounted to 5%. Further, the inhibition at 0.003 µM in test [3] (read-out: MDM2 % inhibition @0.0030) was 65%.
`CC[C@](O)(c1cc(F)c2c(c1)C(=O)N(Cc1ncc(C#N)cn1)[C@@]2(O[C@H]1CCOC1)c1ccc(Cl)cc1)C1(F)CCOCC1` [Example 508, 2-{[(1R)-1-(4-chlorophenyl)-7-fluoro-5-[(1S)-1-(4-fluorooxan-4-yl)-1-hydroxypropyl]-3-oxo-1-[(3S)-oxolan-3-yloxy]-2,3-dihydro-1H-isoindol-2-yl]methyl}pyrimidine-5-carbonitrile]: the inhibition at 10 µM in test [1] (Homo sapiens, SJSA-1, read-out: SJSA1 % inhibition at 10) stood at 11%; in test [2], 9%. In addition, the inhibition at 0.1 µM in test [3] is 17%.
For `CCC(O)(c1cc(F)c2c(c1)C(=O)N(Cc1ncc(Cl)cn1)[C@@]2(OC)c1ccc(Cl)cc1)[C@H]1CC[C@H](O)CC1` (stereo partly drawn) [Example 511, (3R)-3-(4-chlorophenyl)-2-[(5-chloropyrimidin-2-yl)methyl]-4-fluoro-6-{1-hydroxy-1-[trans-4-hydroxycyclohexyl]propyl}-3-methoxy-2,3-dihydro-1H-isoindol-1-one], the inhibition at 10 µM in test [2] is 10%. The inhibition at 0.001 µM in test [3] was 72%.
For `CC[C@@](O)(c1cc(F)c2c(c1)C(=O)N(Cc1ncc(Cl)cn1)[C@@]2(OC)c1ccc(Cl)cc1)C1CCN(C2COC2)CC1` [Example 551, (3R)-3-(4-chlorophenyl)-2-[(5-chloropyrimidin-2-yl)methyl]-4-fluoro-6-[(1S)-1-hydroxy-1-[1-(oxetan-3-yl)piperidin-4-yl]propyl]-3-methoxy-2,3-dihydro-1H-isoindol-1-one], in that order: 13% and 70%.
`CC[C@@](O)(c1cc(F)c2c(c1)C(=O)N(Cc1ncc(Cl)cn1)[C@@]2(OCC1(CO)CC1)c1ccc(Cl)cc1)C1CCN(C)CC1` [Example 556, (3R)-3-(4-chlorophenyl)-2-[(5-chloropyrimidin-2-yl)methyl]-4-fluoro-6-[(1S)-1-hydroxy-1-(1-methylpiperidin-4-yl)propyl]-3-{[1-(hydroxymethyl)cyclopropyl]methoxy}-2,3-dihydro-1H-isoindol-1-one]: the inhibition at 10 µM in test [2] was found to be 14%. In test [3], the inhibition at 0.001 µM was determined as 91%.
For `CC[C@@](O)(c1cc(F)c2c(c1)C(=O)N(Cc1ncc(Cl)cn1)[C@@]2(O[C@H]1C[C@@H](O)C1)c1ccc(Cl)cc1)C1CCN(C)CC1` [Example 560, (3R)-3-(4-chlorophenyl)-2-[(5-chloropyrimidin-2-yl)methyl]-4-fluoro-6-[(1S)-1-hydroxy-1-(1-methylpiperidin-4-yl)propyl]-3-[cis-3-hydroxycyclobutoxy]-2,3-dihydro-1H-isoindol-1-one], in that order: 3% and 30%.
For `CC[C@@](O)(c1cc(F)c2c(c1)C(=O)N(Cc1ncc(Cl)cc1O)[C@@]2(O[C@H]1CCOC1)c1ccc(Cl)cc1)C1CCN(C)CC1` [Example 568, 2-[(5-chloro-3-hydroxypyridin-2-yl)methyl]-3-(4-chlorophenyl)-4-fluoro-6-[(1S)-1-hydroxy-1-(1-methylpiperidin-4-yl)propyl]-3-[(3S)-oxolan-3-yloxy]-2,3-dihydro-1H-isoindol-1-one], in that order: 36% and 76%.
